Laboratory results published in paper PMC4604124, “In Vitro Characterization of the Pharmacological Properties of the Anti-Cancer Chelator, Bp4eT, and Its Phase I Metabolites” (PLoS ONE, 2015).
“And” between values parts separate entries of the source, which are not always exact repeats. Equal entries are not always repeated.

Assays:
[1] = system: A549 human lung adenocarcinoma cells; experiment: MTT cytotoxicity assay, A549 cells; type: cell-based; details: for IC50: MTT
Description: For cytotoxicity experiments, cancer cells were seeded at a density of 5,000 (MCF-7), 10,000 (HL-60) or 2,000 cells/well (HCT116 and A549) in 96-well plates (TPP) for 24 h/37°C prior to the addition of examined agents. The non-cancerous cells, 3T3 and H9c2 cells, were cultured for 24 h/37°C in 96-well plates at a density of 10,000 cells/well, the medium was then changed to serum- and pyruvate-free DMEM (Sigma-Aldrich) and incubated with the cells for another 24 h/37°C. The cytotoxic effects of Bp4eT and its metabolites were studied at different concentrations after a 72 h/37°C incubation. In order to aid the dissolution of the lipophilic ligands, 0.1% dimethyl sulfoxide (v/v) (DMSO; Sigma-Aldrich) was present in the culture medium of all groups. At this concentration, DMSO had no effect on cellular proliferation or viability.
The viability of cells were determined using an MTT assay (Sigma-Aldrich) according to previously established methods. The optical density of soluble MTT was measured at λ = 570 nm, subtracting the λ = 690 nm background using a Tecan Infinite 200M plate reader (Tecan Group, Männedorf, Switzerland). The viability or proliferation of experimental groups was expressed as a percentage of the untreated controls (100%).
SigmaStat for Windows 3.5 (Systat Software, San Jose, CA, USA) statistical software package was utilized to analyze results. The data are expressed as the mean ± SD of a given number of experiments. Statistical significance was determined using a one-way ANOVA with a Bonferroni post-hoc test or Student’s t-test. The results were considered to be statistically significant when p < 0.05. The IC50 values were calculated using CalcuSyn 2.0 software (Biosoft, Cambridge, UK). Cell cycle analysis was evaluated using MultiCycle AV Software (Phoenix Flow Systems, San Diego, CA, USA).

[2] = Viability (viabilita) used to normalise caspase activity; type: cell-based, human; details: human, MCF-7 cells, kontrola = 100;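 also: compound tested at 100 nM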
Description: Supplement pone.0139929.s002.zip/caspases activity.xlsx, sheet "results_viability"

caspase 9 = experiment: Caspase activity, luminescent kit, caspase 9; type: cell-based, human; details: for kaspáza 9, raw signal / kaspáza 9, signal / viabilita: individual experiments by date; for kaspáza 9, raw signal, průměry / kaspáza 9, % kontroly / kaspáza 9, signal / viabilita, průměry: mean; for kaspáza 9, % kontroly / kaspáza 9, signal / viabilita / kaspáza 9, signal / viabilita, průměry: normalised to viability
Description: (§1) To assess the effect of the compounds on caspase activity, MCF-7 cells were incubated with 100 nM Bp4eT or its metabolites for 3, 24 or 72 h/37°C in 96-well plates, as described above. The cells were then lysed by adding 100 μL of cold lysis buffer (100 mM HEPES, 10 mM CHAPS, 10 mM D-L-dithiothreitol, pH 7.4) to 100 μL of medium in each well. Lysates were immediately frozen at -80°C. Thawed lysates were used to assess caspase activity using luminescent kits for caspases 3/7, 8 and 9 (Promega, Madison, WI, USA). The luminescence was measured using the Tecan Infinite 200M plate reader. Caspase activity in the experimental groups was corrected according to the cellular viability of each group and expressed as a percentage of activity of the untreated control (100%).

caspase 8 = experiment: Caspase activity, luminescent kit, caspase 8; type: cell-based, human
Description: as §1

Compound: CCN=CNN=C(c1ccccc1)c1ccccn1 [Bp4eA, N ^3-ethyl-N ^1-[phenyl(pyridin-2-yl)methylene]formamidrazone]
- Therapeutic index, IC50 non-cancerous cells / IC50 neoplastic cells ([1]; 3T3/A549): 5.0
- MTT, relative to control (0 = 100) ([1]; A549, 2 000 b/j, 1 μM, průměr (mean), sheet Bp4eA): 94.41
- MTT, relative to control (0 = 100) ([1]; A549, 2 000 b/j, 1 μM, single experiment (date), sheet Bp4eA): 88.8209 and 94.4571 and 96.7337 and 97.6446
- MTT, relative to control (0 = 100) ([1]; A549, 2 000 b/j, 3 μM, průměr (mean), sheet Bp4eA): 94.09
- MTT, relative to control (0 = 100) ([1]; A549, 2 000 b/j, 3 μM, single experiment (date), sheet Bp4eA): 86.5333 and 93.7511 and 98.3115 and 97.7691
- MTT, relative to control (0 = 100) ([1]; A549, 2 000 b/j, 10 μM, průměr (mean), sheet Bp4eA): 92.78
- MTT, relative to control (0 = 100) ([1]; A549, 2 000 b/j, 10 μM, single experiment (date), sheet Bp4eA): 86.1682 and 92.0865 and 96.0506 and 96.8227
- MTT, relative to control (0 = 100) ([1]; A549, 2 000 b/j, 30 μM, průměr (mean), sheet Bp4eA): 91.20
- MTT, relative to control (0 = 100) ([1]; A549, 2 000 b/j, 30 μM, single experiment (date), sheet Bp4eA): 88.1425 and 87.7957 and 97.6861 and 91.1602
- MTT, relative to control (0 = 100) ([1]; A549, 2 000 b/j, 100 μM, průměr (mean), sheet Bp4eA): 77.56
- MTT, relative to control (0 = 100) ([1]; A549, 2 000 b/j, 100 μM, single experiment (date), sheet Bp4eA): 74.9089 and 76.0742 and 86.7011 and 72.5654
- MTT, relative to control (0 = 100) ([1]; A549, 2 000 b/j, 300 μM, průměr (mean), sheet Bp4eA): 45.10
- MTT, relative to control (0 = 100) ([1]; A549, 2 000 b/j, 300 μM, single experiment (date), sheet Bp4eA): 48.1515 and 41.8857 and 54.342 and 36.0376
- MTT, relative to control (0 = 100) ([1]; A549, 2 000 b/j, 1000 μM, průměr (mean), sheet Bp4eA): 7.31
- MTT, relative to control (0 = 100) ([1]; A549, 2 000 b/j, 1000 μM, single experiment (date), sheet Bp4eA): 9.28 and 7.437 and 7.169 and 5.37
- IC50 ([1]; A549, 2 000 b/j, single experiment (date), sheet Bp4eA): 183 µM and 273 µM and 169 µM
- Therapeutic index, IC50 non-cancerous cells / IC50 neoplastic cells ([1]; H9c2/A549): 2.0
- IC50 ([1]; Homo sapiens, A549, 72 h, A549, 72 h/37°C, mean ± SD, n ≥ 4): 207 ± 46.1 µM
- IC50 ([1]; Homo sapiens, A549, A549, 2 000 b/j, průměr (mean), sheet Bp4eA): 207 µM
- IC50 ([1]; Homo sapiens, A549, A549, 2 000 b/j, single experiment (date), sheet Bp4eA): 202 µM
- viability at 3 h, 100 nM ([2]; 3 hodiny): 96.8%
- viability at 24 h, 100 nM ([2]; 24 hodin): 95.6%
- viability at 72 h, 100 nM ([2]; 72 hodin): 93%
- kaspáza 9, raw signal (caspase 9; 3 hodiny): 5948 and 2664.5 and 3083.5 and 2163.5
- kaspáza 9, raw signal, průměry (caspase 9; 3 hodiny): 3464.88
- kaspáza 9, % kontroly (caspase 9; 3 hodiny): 101.76 % kontroly
- kaspáza 9, signal / viabilita (caspase 9; 3 hodiny): 61.4437 and 27.5247 and 31.853 and 22.3493
- kaspáza 9, signal / viabilita, průměry (caspase 9; 3 hodiny): 35.7927
- kaspáza 9, raw signal (caspase 9; 24 hodin): 4444 and 2960 and 4885.5 and 3130
- kaspáza 9, raw signal, průměry (caspase 9; 24 hodin): 3854.88
- kaspáza 9, % kontroly (caspase 9; 24 hodin): 99.64 % kontroly
- kaspáza 9, signal / viabilita (caspase 9; 24 hodin): 46.4885 and 30.9645 and 51.1071 and 32.7428
- kaspáza 9, signal / viabilita, průměry (caspase 9; 24 hodin): 40.3257
- kaspáza 9, raw signal (caspase 9; 72 hodin): 22564 and 18032 and 23775.5 and 21453
- kaspáza 9, raw signal, průměry (caspase 9; 72 hodin): 21456.1
- kaspáza 9, % kontroly (caspase 9; 72 hodin): 106.51 % kontroly
- kaspáza 9, signal / viabilita (caspase 9; 72 hodin): 242.519 and 193.809 and 255.541 and 230.578
- kaspáza 9, signal / viabilita, průměry (caspase 9; 72 hodin): 230.612
- kaspáza 8, raw signal (caspase 8; 3 hodiny, individual experiments by date): 2039 and 1218.5 and 1153 and 868.5
- kaspáza 8, raw signal, průměry (caspase 8; 3 hodiny, mean): 1319.75
- kaspáza 8, % kontroly (caspase 8; 3 hodiny, mean, normalised to viability): 98.01 % kontroly
- kaspáza 8, signal / viabilita (caspase 8; 3 hodiny, normalised to viability, individual experiments by date): 21.0632 and 12.5873 and 11.9107 and 8.972
- kaspáza 8, signal / viabilita, průměry (caspase 8; 3 hodiny, normalised to viability, mean): 13.6332
- kaspáza 8, raw signal (caspase 8; 24 hodin, individual experiments by date): 1556 and 1108.5 and 1675.5 and 1199
